Measured values as given in the supplement of paper PMC12317010.
Structures can show the parent of a compound that is named as a salt.

Assay: collision cross section in nitrogen (drift tube, single-field); higher = larger gas-phase ion size
[1] = ion type: [M+H], ion source: APCI, ion mode: Positive
[2] = ion type: [M+H], ion source: ESI, ion mode: Positive
[3] = ion type: [M+Na], ion source: ESI, ion mode: Positive
[4] = ion type: [M-H], ion source: ESI, ion mode: Negative
[5] = ion type: [M+], ion source: APCI, ion mode: Positive
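Note: chemical standards at 10 µM analysed by drift tube IMS-QTOF MS in about 3.95 torr nitrogen, mean of duplicate injections differing ≤1%, mass error below 10 ppm.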

## O=C(Nc1ccccc1SSc1ccccc1NC(=O)c1ccccc1)c1ccccc1 [2,2'-Dibenzoylaminodiphenyl disulfide]
[1]
  collision cross section in nitrogen: 194.6 Å²
[2]
  collision cross section in nitrogen: 194 Å²
[3]
  collision cross section in nitrogen: 203 Å²
[4]
  collision cross section in nitrogen: 206 Å²

## Cc1cc(Cc2cc(C)cc(C(C)(C)C)c2O)c(O)c(C(C)(C)C)c1 [2,2'-Methylenebis(4-methyl-6-tert-butylphenol)]
[4]
  collision cross section in nitrogen: 195.4 Å²

## CCc1cc(Cc2cc(CC)cc(C(C)(C)C)c2O)c(O)c(C(C)(C)C)c1 [2,2'-Methylenebis(ethyl-6-tert-butylphenol)]
[4]
  collision cross section in nitrogen: 203.6 Å²

## NCCCN(CCO)CCO [2,2'-[(3-Aminopropyl)imino]diethanol]
[1]
  collision cross section in nitrogen: 132.7 Å²
[2]
  collision cross section in nitrogen: 133.5 Å²
[3]
  collision cross section in nitrogen: 135.8 Å²

## Cc1ccc(N(CCO)CCO)cc1 [2,2'-[(4-Methylphenyl)imino]diethanol]
[1]
  collision cross section in nitrogen: 141.8 Å²
[2]
  collision cross section in nitrogen: 143.4 Å²
[3]
  collision cross section in nitrogen: 151 Å²

## NCCOCCOCCN [2,2'-[Ethane-1,2-diylbis(oxy)]diethanamine]
[3]
  collision cross section in nitrogen: 132.4 Å²

## CC(C)C(OC(=O)c1ccccc1)C(C)(C)COC(=O)c1ccccc1 (stereo unspecified) [2,2,4-Trimethylpentane-1,3-diyl dibenzoate]
[3]
  collision cross section in nitrogen: 194.6 Å²

## CC1(C)CC(N)CC(C)(C)N1 [2,2,6,6-Tetramethylpiperidin-4-amine]
[1]
  collision cross section in nitrogen: 133.5 Å²
[2]
  collision cross section in nitrogen: 135.1 Å²

## C=CCOCC(CC)(CO)COCC=C [2,2-Bis[(prop-2-en-1-yloxy)methyl]butan-1-ol]
[3]
  collision cross section in nitrogen: 150 Å²

## COC(OC)(C(=O)c1ccccc1)c1ccccc1 [2,2-Dimethoxy-1,2-diphenylethanone]
[3]
  collision cross section in nitrogen: 170.6 Å²

## CC1(C)Cc2cccc(N)c2O1 [2,2-Dimethyl-2,3-dihydro-1-benzofuran-7-amine]
[1]
  collision cross section in nitrogen: 135.8 Å²
[2]
  collision cross section in nitrogen: 135 Å²

## COc1ccc(C(=O)c2ccccc2O)c(O)c1 [2,2′-Dihydroxy-4-methoxybenzophenone]
[4]
  collision cross section in nitrogen: 153.6 Å²

## Oc1ccccc1Cc1ccccc1O [2,2′-Methylenebis[phenol]]
[4]
  collision cross section in nitrogen: 142.9 Å²

## Oc1c(Cl)cc(Cl)c(Cl)c1Cl [2,3,4,6-Tetrachlorophenol]
[4]
  collision cross section in nitrogen: 133.8 Å²

## O=C(c1ccccc1)c1ccc(O)c(O)c1O [2,3,4-Trihydroxbenzophenone]
[4]
  collision cross section in nitrogen: 151.1 Å²

## O=C(O)c1c(Cl)ccc(Cl)c1Cl [2,3,6-Trichlorobenzoic acid]
[4]
  collision cross section in nitrogen: 143.9 Å²

## Oc1c(Cl)ccc(Cl)c1Cl [2,3,6-Trichlorophenol]
[4]
  collision cross section in nitrogen: 128.9 Å²

## Cc1ccc(C)c(O)c1C [2,3,6-Trimethylphenol]
[4]
  collision cross section in nitrogen: 130.9 Å²

## Nc1cccnc1N [2,3-Diaminopyridine]
[2]
  collision cross section in nitrogen: 118.5 Å²

## CC1=CP(=O)(c2ccccc2)CC1 (stereo unspecified) [2,3-Dihydro-4-methyl-1-phenyl-1H-phosphole 1-oxide]
[1]
  collision cross section in nitrogen: 141.7 Å²
[2]
  collision cross section in nitrogen: 141.3 Å²
[3]
  collision cross section in nitrogen: 160.6 Å²
[5]
  collision cross section in nitrogen: 138 Å²

## Cc1cccc(O)c1C [2,3-Dimethylphenol]
[4]
  collision cross section in nitrogen: 126.6 Å²

## O=C(c1ccc(O)cc1)c1ccc(O)cc1O [2,4,4'-Trihydroxybenzophenone]
[4]
  collision cross section in nitrogen: 152.8 Å²

## CCCCOCCOC(=O)COc1cc(Cl)c(Cl)cc1Cl [2,4,5-T-butotyl]
[3]
  collision cross section in nitrogen: 184.2 Å²

## O=S(=O)(O)c1cc(Cl)c(Cl)cc1Cl [2,4,5-Trichlorobenzenesulfonic acid]
[4]
  collision cross section in nitrogen: 142.8 Å²

## Oc1cc(Cl)c(Cl)cc1Cl [2,4,5-Trichlorophenol sodium salt]
[4]
  collision cross section in nitrogen: 128.6 Å²

## Oc1cc(Cl)c(Cl)cc1Cl [2,4,5-Trichlorophenol]
[4]
  collision cross section in nitrogen: 128.7 Å²

## Oc1c(Br)cc(Br)cc1Br [2,4,6-Tribromophenol]
[4]
  collision cross section in nitrogen: 135.2 Å²

## Oc1c(I)cc(I)cc1I [2,4,6-Triiodophenol]
[5]
  collision cross section in nitrogen: 139.5 Å²
[4]
  collision cross section in nitrogen: 143.5 Å²

## Cc1cc(C)c(C(=O)O)c(C)c1 [2,4,6-Trimethylbenzoic acid]
[4]
  collision cross section in nitrogen: 140.5 Å²

## CC(C)(C)c1cc(C(C)(C)C)c(O)c(C(C)(C)C)c1 [2,4,6-Tris(tert-butyl)phenol]
[4]
  collision cross section in nitrogen: 173.2 Å²

## CC(C)(c1ccccc1)c1ccc(O)c(C(C)(C)c2ccccc2)c1 [2,4-Bis(1-methyl-1-phenylethyl)phenol]
[2]
  collision cross section in nitrogen: 171.9 Å²
[4]
  collision cross section in nitrogen: 187.8 Å²

## CC(C)Nc1nc(Cl)nc(NC(C)C)n1 [2,4-Bis(isopropylamino)-6-chloro-1,3,5-triazine]
[1]
  collision cross section in nitrogen: 154.9 Å²
[2]
  collision cross section in nitrogen: 155.3 Å²

## CCCCOCCOC(=O)COc1ccc(Cl)cc1Cl [2,4-D-Butotyl]
[3]
  collision cross section in nitrogen: 177 Å²

## CC(C)COC(=O)COc1ccc(Cl)cc1Cl [2,4-D-isobutyl]
[3]
  collision cross section in nitrogen: 172.2 Å²

## CC(C)(C)c1ccc(O)c(C(C)(C)C)c1 [2,4-Di-tert-butylphenol]
[4]
  collision cross section in nitrogen: 155.1 Å²

## Nc1ccc(S(=O)(=O)O)c(N)c1 [2,4-Diaminobenzenesulfonic acid]
[4]
  collision cross section in nitrogen: 137.9 Å²

## Cc1ccc(N)cc1N [2,4-Diaminotoluene]
[2]
  collision cross section in nitrogen: 122.3 Å²

## Cc1cc(O)c(Cl)c(C)c1Cl [2,4-Dichloro-3,5-dimethylphenol]
[4]
  collision cross section in nitrogen: 135.4 Å²

## Nc1c(Cl)cc(Cl)cc1[N+](=O)[O-] [2,4-Dichloro-6-nitroaniline]
[4]
  collision cross section in nitrogen: 131.4 Å²

## O=C(Nc1ccc2ccccc2c1)c1ccc(Cl)cc1Cl [2,4-Dichloro-N-(naphthalene-2-yl)benzamide]
[2]
  collision cross section in nitrogen: 171.9 Å²
[3]
  collision cross section in nitrogen: 184.5 Å²

## Oc1ccc(Cl)cc1Cl [2,4-Dichlorophenol]
[4]
  collision cross section in nitrogen: 123.6 Å²

## O=C(c1ccccc1)c1ccc(O)cc1O [2,4-Dihydroxybenzophenone]
[4]
  collision cross section in nitrogen: 148.3 Å²

## Oc1ccnc(O)c1 [2,4-Dihydroxypyridine]
[1]
  collision cross section in nitrogen: 119.5 Å²
[2]
  collision cross section in nitrogen: 120.2 Å²
[4]
  collision cross section in nitrogen: 118.5 Å²

## CC(C)c1ccc(O)c(C(C)C)c1 [2,4-Diisopropylphenol]
[4]
  collision cross section in nitrogen: 146.7 Å²

## Cc1ccc(S(=O)(=O)O)c(C)c1 [2,4-Dimethylbenzenesulfonic acid]
[4]
  collision cross section in nitrogen: 138.3 Å²

## O=[N+]([O-])c1ccc(O)c([N+](=O)[O-])c1 [2,4-Dinitrophenol]
[4]
  collision cross section in nitrogen: 127.8 Å²

## O=c1[nH]cc(S(=O)(=O)Cl)c(=O)[nH]1 [2,4-Dioxo-1,2,3,4-tetrahydropyrimidine-5-sulfonyl chloride]
[2]
  collision cross section in nitrogen: 140.8 Å²

## COCCOCCOCCOCCOC [2,5,8,11,14-Pentaoxapentadecane]
[3]
  collision cross section in nitrogen: 147.3 Å²

## CC(C)(C)c1cc(O)c(C(C)(C)C)cc1O [2,5-Di-tert-butylbenzene-1,4-diol]
[5]
  collision cross section in nitrogen: 155.1 Å²

## Oc1cc(Cl)ccc1Cl [2,5-Dichlorophenol]
[4]
  collision cross section in nitrogen: 123.3 Å²

## COc1cc(Cl)c(OC)cc1N [2,5-Dimethoxy-4-chloroaniline]
[2]
  collision cross section in nitrogen: 145 Å²
[5]
  collision cross section in nitrogen: 133 Å²

## Cc1ccc(C)c(S(=O)(=O)O)c1 [2,5-Dimethylbenzenesulfonic acid monohydrate]
[4]
  collision cross section in nitrogen: 138.2 Å²

## Cc1ccc(C)c(S(=O)(=O)O)c1 [2,5-Dimethylbenzenesulfonic acid]
[4]
  collision cross section in nitrogen: 138.2 Å²

## CCC(C)c1cccc(C(C)CC)c1O (stereo unspecified) [2,6-Di(butan-2-yl)phenol]
[4]
  collision cross section in nitrogen: 151.4 Å²

## COc1cc(C(C)(C)C)c(O)c(C(C)(C)C)c1 [2,6-Di-tert-butyl-4-methoxyphenol]
[5]
  collision cross section in nitrogen: 157.2 Å²
[4]
  collision cross section in nitrogen: 160.4 Å²

## CC(C)(C)c1cc([N+](=O)[O-])cc(C(C)(C)C)c1O [2,6-Di-tert-butyl-4-nitrophenol]
[4]
  collision cross section in nitrogen: 162.2 Å²

## Nc1cccc(N)n1 [2,6-Diaminopyridine]
[1]
  collision cross section in nitrogen: 118.9 Å²
[2]
  collision cross section in nitrogen: 119.8 Å²

## Nc1c(Br)cc([N+](=O)[O-])cc1Br [2,6-Dibromo-4-nitroaniline]
[4]
  collision cross section in nitrogen: 134.9 Å²

## Nc1cc(Cl)c(N)c(Cl)c1 [2,6-Dichloro-1,4-benzenediamine]
[2]
  collision cross section in nitrogen: 135.5 Å²
[5]
  collision cross section in nitrogen: 128.1 Å²

## CC(C)c1cccc(C(C)C)c1N [2,6-Diisopropylaniline]
[1]
  collision cross section in nitrogen: 146.6 Å²

## CCCCCCCCCCCCCN1CC(C)OC(C)C1 (stereo unspecified) [2,6-Dimethyl-4-tridecylmorpholine]
[2]
  collision cross section in nitrogen: 183.5 Å²

## Cc1cccc2sc3nncn3c12 [2,7,8,9-Tricyclazole]
[1]
  collision cross section in nitrogen: 136.3 Å²
[2]
  collision cross section in nitrogen: 134 Å²
[3]
  collision cross section in nitrogen: 153.5 Å²

## CC(=O)Nc1ccc2c(c1)Cc1cc(NC(C)=O)ccc1-2 [2,7-Acetylaminofluorene]
[1]
  collision cross section in nitrogen: 176.3 Å²
[2]
  collision cross section in nitrogen: 175.7 Å²
[3]
  collision cross section in nitrogen: 180.9 Å²
[5]
  collision cross section in nitrogen: 167.4 Å²
[4]
  collision cross section in nitrogen: 174.7 Å²

## CCCC(C)c1ccccc1O (stereo unspecified) [2-(1-Methylbutyl)phenol]
[4]
  collision cross section in nitrogen: 138.6 Å²

## CC(C)(C)c1cc(-n2nc3ccccc3n2)c(O)c(C(C)(C)C)c1 [2-(2'-Hydroxy-3',5'-di-tert-butylphenyl)benzotriazole]
[5]
  collision cross section in nitrogen: 186 Å²
[4]
  collision cross section in nitrogen: 192.5 Å²

## CC(C)c1cccc(C(C)C)c1N1C(=O)c2ccc(O)cc2C1=O [2-(2,6-Diisopropylphenyl)-5-hydroxy-1H-isoindole-1,3-dione]
[4]
  collision cross section in nitrogen: 182 Å²

## CCCCOCCOCCO [2-(2-Butoxyethoxy)ethanol]
[3]
  collision cross section in nitrogen: 141.5 Å²
